System: alpha-smooth muscle actin (α-SMA)
Assay: Inhibition of TGF-β induced expression of alpha-smooth muscle actin (α-SMA) in CFSC cells, western blot
Type: cell-based
Conditions: compound at 10 μM, TGF-β (10 ng/mL), 24 hours, decrease in band intensity vs TGF-β only
Protocol: The ability of a compound to inhibit the TGF-β induced expression of alpha-smooth muscle actin (α-SMA) was evaluated in CCL4-treated fat storing (CFSC) cells. α-SMA is considered as a reliable marker of hepatic stellate cell activation and a key biomarker for liver fibrosis. See, e.g., Meng et al., Nat. Rev. Nephrol. 2016, 12, 325-38; Fabregat et al., FEBS J. 2016, 283, 2219-32.
CFSC cells maintained in a DMEM medium supplemented with 10% fetal bovine serum were seeded to 12-well culture dishes and grown to a confluence of 60-70% the next day. Culture was changed to a serum-free DMEM medium and treated with a compound at 10 μM in the presence of TGF-β (10 ng/mL). The cells were incubated for another 24 hours. All culture was maintained at 37° C. in 5% carbon dioxide.
A NP-40 lysate solution (50 mM Tris (pH 7.4), 150 mM NaCl, 1% NP-40) with EDTA free cocktail added was used to lyse the cells on ice for 30 min. The lysate was collected and centrifuged at 4° C. for 10 min at 12,000 rpm. The pellet was discarded and the supernatant was transferred to a new tube. Cell lysates were loaded with 5×loading buffer and boiled for 10 min, resolved by 10% SDS-polyacrylamide gel electrophoresis (SDS-PAGE), and transferred to PVDF membrane. The membrane was blocked with 5% skim milk in Tris-buffered saline and TWEEN® 20 (TBST; 10 mM Tris-HCl (pH 8.0), 150 mM NaCl, 0.1% TWEEN® 20) for 1 h at room temperature and then incubated with α-SMA and […] antibodies overnight at 4° C. After washing twice with TBST, the membrane was probed with a horseradish […] anti-immunoglobulin (1:5000 dilution) for 1 h at room temperature. After two subsequent rinses in TBST, immunoreactive products were reacted with ECL and visualized by a UVP CHEMSTUDIO™ imaging system. The western blotting bands are quantitated using an ImageJ software. The percentage of inhibition was obtained by calculating the percentage decrease in the band intensity compared to the one treated with TGF-β only.
The results are summarized in Table 1, wherein A represents a value no less of 90% inhibition, B represents a value less than 90% but no less than 80% inhibition, C represents a value less than 80% but no less than 70% inhibition, D represents a value less than 70% but no less than 50% inhibition, and E represents a value less than 50% with a compound at 10 μM.

SMILES | inhibition at 10 µM [%]
CC1=C(CC(=O)O)c2cc(F)ccc2/C1=C\c1ccc(C2CC2)cc1 [Compound B37, 2-[(1Z)-1-[(4-cyclopropylphenyl)methylidene]-5-fluoro-2-methyl-1H-inden-3-yl]acetic acid] | 80 to 90
C=C(C)c1ccc(/C=C2/C(C)=C(CC(=O)O)c3cc(F)ccc32)cc1 [Compound B39, 2-[(1Z)-5-fluoro-2-methyl-1-{[4-(prop-1-en-2-yl)phenyl]methylidene}-1H-inden-3-yl]acetic acid] | < 50
CC1=C(CC(=O)O)c2cc(F)ccc2/C1=C\c1ccc(C(C(F)(F)F)C(F)(F)F)cc1 [Compound B42, 2-[(1Z)-5-fluoro-1-{[4-(1,1,1,3,3,3-hexafluoropropan-2-yl)phenyl]methylidene}-2-methyl-1H-inden-3-yl]acetic acid] | 80 to 90
CC1=C(CC(=O)N(C)O)c2cc(F)ccc2/C1=C\c1ccc(Oc2ccccc2)cc1 [Compound C1, 2-[(1Z)-5-Fluoro-2-methyl-1-[(4-phenoxyphenyl)methylidene]-1H-inden-3-yl]-N-hydroxy-N-methylacetamide] | 80 to 90
CC1=C(CC(=O)N(C)O)c2cc(F)ccc2/C1=C\c1ccc(Oc2ccc(F)cc2)cc1 [Compound C2, 2-[(1Z)-5-Fluoro-1-{[4-(4-fluorophenoxy)phenyl]methylidene}-2-methyl-1H-inden-3-yl]-N-hydroxy-N-methylacetamide] | > 90
CC1=C(CC(=O)N(C)O)c2cc(F)ccc2/C1=C\c1cccc(Oc2ccccc2)c1 [Compound C3, (Z)-2-(5-Fluoro-2-methyl-1-(3-phenoxybenzylidene)-1H-inden-3-yl)-N-hydroxy-N-methylacetamide] | 80 to 90
CC1=C(CC(=O)NO)c2cc(F)ccc2/C1=C\c1ccc(Oc2ccc(C(C)C)cc2)cc1 [Compound D1, 2-[(1Z)-5-Fluoro-2-methyl-1-({4-[4-(propan-2-yl)phenoxy]phenyl}methylidene)-1H-inden-3-yl]-N-hydroxyacetamide] | > 90
CC1=C(CC(=O)O)c2cc(F)ccc2/C1=C\c1ccc(Oc2ccc(C(C)(C)C)cc2)cc1 [Compound D2, 2-[(1Z)-5-Fluoro-2-methyl-1-({4-[4-(tert-butyl)phenoxy]phenyl}methylidene)-1H-inden-3-yl]acetic acid] | > 90
CC1=C(CC(=O)O)c2cc(F)ccc2/C1=C\c1ccc(Oc2cccc(C(C)(C)C)c2)cc1 [Compound D3, 2-[(1Z)-5-Fluoro-2-methyl-1-({4-[3-(tert-butyl)phenoxy]phenyl}methylidene)-1H-inden-3-yl]acetic acid] | > 90
CC1=C(CC(=O)O)c2cc(F)ccc2/C1=C\c1ccc(Oc2ccc(C)c(F)c2)cc1 [Compound D4, 2-[(1Z)-5-Fluoro-2-methyl-1-({4-[3-fluoro-4-methylphenoxy]phenyl}-methylidene)-1H-inden-3-yl]acetic acid] | < 50
CC1=C(CC(=O)O)c2cc(F)ccc2/C1=C\c1ccc(Oc2ccc(F)c(F)c2)cc1 [Compound D5, 2-[(1Z)-5-Fluoro-2-methyl-1-({4-[3,4-difluorophenoxy]phenyl}methylidene)-1H-inden-3-yl]acetic acid] | > 90
CC1=C(CC(=O)O)c2cc(F)ccc2/C1=C\c1ccc(Oc2cccc([N+](=O)[O-])c2)cc1 [Compound D6, 2-[(1Z)-5-Fluoro-2-methyl-1-({4-[3-nitrophenoxy]phenyl}methylidene)-1H-inden-3-yl]acetic acid] | < 50
CC1=C(CC(=O)O)c2cc(F)ccc2/C1=C\c1ccc(Oc2ccc(C(F)(F)F)cc2)cc1 [Compound D7, 2-[(1Z)-5-Fluoro-2-methyl-1-({4-[4-(trifluoromethyl)phenoxy]phenyl}-methylidene)-1H-inden-3-yl]acetic acid] | > 90
CC(C)CC1=C(CC(=O)O)c2cc(F)ccc2/C1=C\c1ccc(Oc2ccc(F)cc2)cc1 [Compound D8, 2-[(1Z)-5-Fluoro-1-{[4-(4-fluorophenoxy)phenyl]methylidene}-2-(2-methylpropyl)-1H-inden-3-yl]acetic acid] | > 90
O=C(O)CC1=C(Cc2ccccc2)/C(=C/c2ccc(Oc3ccc(F)cc3)cc2)c2ccc(F)cc21 [Compound D9, 2-[(1Z)-5-Fluoro-2-benzyl-1-({4-[4-fluorophenoxy]phenyl}methylidene)-1H-inden-3-yl]acetic acid] | < 50
COc1ccc2c(c1)C(CC(=O)O)=C(C)/C2=C/c1ccc(Oc2ccc(F)cc2)cc1 [Compound D10, 2-[(1Z)-5-Methoxy-2-methyl-1-({4-[4-fluorophenoxy]phenyl}methylidene)-1H-inden-3-yl]acetic acid] | > 90
COc1ccc2c(c1)C(CC(=O)O)=C(C)/C2=C/c1ccc(Oc2ccccc2)cc1 [Compound D11, 2-[(1Z)-5-Methoxy-2-methyl-1-[(4-phenoxyphenyl)methylidene]-1H-inden-3-yl]acetic acid] | > 90
CC1=C(CC(=O)O)c2cc(F)ccc2/C1=C\c1ccc(Oc2ccc(F)cc2)cc1C(F)(F)F [Compound D12, 2-[(1Z)-1-{[2-Trifluoromethyl-4-(4-fluorophenoxy)phenyl]methylidene}-5-fluoro-2-methyl-1H-inden-3-yl]acetic acid] | < 50
CC1=C(CC(=O)O)c2cc(F)ccc2/C1=C\c1ccc(Oc2ccc(F)cc2)c(C)c1 [Compound D13, 2-[(1Z)-1-{[3-Methyl-4-(4-fluorophenoxy)phenyl]methylidene}-5-fluoro-2-methyl-1H-inden-3-yl]acetic acid] | < 50
CC1=C(CC(=O)O)c2cc(F)ccc2/C1=C\c1ccc(Oc2ccc(F)cc2)cc1C [Compound D14, 2-[(1Z)-1-{[2-Methyl-4-(4-fluorophenoxy)phenyl]methylidene}-5-fluoro-2-methyl-1H-inden-3-yl]acetic acid] | > 90
CC1=C(CC(=O)O)c2cc(F)cc(F)c2/C1=C\c1ccc(Oc2ccc(F)cc2)cc1 [Compound D15, 2-[(1Z)-5,7-Difluoro-2-methyl-1-({4-[4-fluorophenoxy]phenyl}methylidene)-1H-inden-3-yl]acetic acid] | > 90
CC1=C(CC(=O)O)c2c(F)cc(F)cc2/C1=C\c1ccc(Oc2ccc(F)cc2)cc1 [Compound D16, 2-[(1Z)-4,6-Difluoro-2-methyl-1-({4-[4-fluorophenoxy]phenyl}methylidene)-1H-inden-3-yl]acetic acid] | < 50
CC1=C(CC(=O)O)c2cc(F)ccc2/C1=C\c1cccc(Oc2ccccc2)c1 [Compound D18, (Z)-2-(5-Fluoro-2-methyl-1-(3-phenoxybenzylidene)-1H-inden-3-yl)acetic acid] | > 90
CC1=C(CC(=O)O)c2cc(F)ccc2/C1=C\c1ccccc1Oc1ccccc1 [Compound D19, 2-[(1Z)-5-Fluoro-1-(2-(phenoxy)benzylidene)-2-methyl-1H-inden-3-yl]-acetic acid] | < 50
CC1=C(CC(=O)O)c2cc(F)cc(F)c2/C1=C\c1cccc(Oc2ccccc2)c1 [Compound D20, 2-[(1Z)-5,7-Difluoro-1-(3-(phenoxy)benzylidene)-2-methyl-1H-inden-3-yl]-acetic acid] | > 90
CC1=C(CC(=O)O)c2c(F)cc(F)cc2/C1=C\c1cccc(Oc2ccccc2)c1 [Compound D21, 2-[(1Z)-4,6-Difluoro-1-(3-(phenoxy)benzylidene)-2-methyl-1H-inden-3-yl]-acetic acid] | > 90
COc1ccc(Oc2cccc(/C=C3/C(C)=C(CC(=O)O)c4cc(F)ccc43)c2)cc1 [Compound D22, 2-[(1Z)-5-Fluoro-2-methyl-1-({3-[4-methoxyphenoxy]phenyl}methylidene)-1H-inden-3-yl]acetic acid] | > 90
CC1=C(CC(=O)O)c2cc(F)ccc2/C1=C\c1ccc(F)c(Oc2ccccc2)c1 [Compound D23, 2-[(1Z)-5-Fluoro-1-(4-fluoro-3-(phenoxy)benzylidene)-2-methyl-1H-inden-3-yl]-acetic acid] | > 90
CC1=C(CC(=O)O)c2cc(F)ccc2/C1=C\c1cccc(Oc2ccc(Cl)cc2)c1 [Compound D25, 2-[(1Z)-5-Fluoro-2-methyl-1-({3-[4-chlorophenoxy]phenyl}methylidene)-1H-inden-3-yl]acetic acid] | > 90
CC1=C(CC(=O)O)c2cc(F)ccc2/C1=C\c1cccc(Oc2ccc(C(F)(F)F)cc2)c1 [Compound D26, 2-[(1Z)-5-Fluoro-2-methyl-1-({3-[4-trifluoromethylphenoxy]phenyl}-methylidene)-1H-inden-3-yl]acetic acid] | > 90
